Measured values taken from patent publication US6124269A, “2-Halo-6-O-substituted ketolide derivatives” (priority 1998, dated 2000).
Values after ≈ are worked out from the molar mass of the structure shown. Values joined by “and” are separate entries in the source; they are usually repeats but may differ in a detail not shown here. Equal values may be shown once.

Experiments:
Format in all cases: cell-based
[1] = test system: Haemophilis influenzae DILL AMP R; test: In vitro agar dilution MIC, organism code WW; details: unit assumed
Procedure: (§1) Representative compounds of the present invention were assayed in vitro for antibacterial activity as follows: Twelve petri dishes containing successive aqueous dilutions of the test compound mixed with 10 mL of sterilized Brain Heart Infusion (BHI) agar (Difco 0418-01-5) were prepared. Each plate was inoculated with 1:100 (or 1:10 for slow-growing strains, such as Micrococcus and Streptococcus) dilutions of up to 32 different microorganisms, using a Steers replicator block. The inoculated plates were incubated at 35-37° C. for 20 to 24 hours. In addition, a control plate, using BHI agar containing no test compound, was prepared and incubated at the beginning and end of each test.
(§2) An additional plate containing a compound having known susceptibility patterns for the organisms being tested and belonging to the same antibiotic class as the test compound was also prepared and incubated as a further control, as well as to provide test-to-test comparability.
(§3) After incubation, each plate was visually inspected. The minimum inhibitory concentration (MIC) was defined as the lowest concentration of drug yielding no growth, a slight haze, or sparsely isolated colonies on the inoculum spot as compared to the growth control.

[2] = test system: Streptococcus bovis A-5169; test: In vitro agar dilution MIC, organism code JJ; details: Table 1B, unit assumed
Procedure: as §1, §2, §3

Escherichia coli SS = test: In vitro agar dilution MIC, organism code RR; details: Table 1B, in µg/mL (unit assumed)
Procedure: as §1, §2, §3

[3] = test system: Micrococcus luteus ATCC 4698; test: In vitro agar dilution MIC, organism code PP; details: Table 1B, in µg/mL (unit assumed)
Procedure: as §1, §2, §3

[4] = test system: Staphylococcus aureus CMX 642A; test: In vitro agar dilution MIC, organism code DD; details: Table 1B, unit assumed
Procedure: as §1, §2, §3

[5] = test system: Nocardia asteroides ATCC 9970; test: In vitro agar dilution MIC, organism code VV; details: Table 1B, in µg/mL (unit assumed)
Procedure: as §1
An additional plate containing a compound having known susceptibility patterns for the organisms being tested and belonging to the same antibiotic class as the test compound was also prepared and incubated as a further control, as well as to provide test-to-test comparability. Erythromycin A was used for this purpose.
as §3

[6] = test system: Streptococcus agalactiae CMX 508; test: In vitro agar dilution MIC, organism code KK; details: Table 1B, unit assumed
Procedure: as §1, §2, §3

Escherichia coli JUHL = test: In vitro agar dilution MIC, organism code QQ; details: Table 1B, in µg/mL (unit assumed)
Procedure: as §1, §2, §3

[7] = test system: Micrococcus luteus ATCC 9341; test: In vitro agar dilution MIC, organism code OO; details: Table 1B, unit assumed
Procedure: as §1, §2, §3

[8] = test system: Staphylococcus aureus CMX 553; test: In vitro agar dilution MIC, organism code FF; details: Table 1B, unit assumed
Procedure: as §1, §2, §3

[9] = test system: Streptococcus pneumoniae GYR 1171; test: In vitro agar dilution MIC, organism code YY; details: Table 1B, unit assumed
Procedure: as §1, §2, §3

[10] = test system: Staphylococcus aureus A-5278; test: In vitro agar dilution MIC, organism code CC; details: unit assumed
Procedure: as §1, §2, §3

[11] = test system: Enterococcus faecium ATCC 8043; test: In vitro agar dilution MIC, organism code II; details: Table 1B, unit assumed
Procedure: as §1, §2, §3

[12] = test system: Staphylococcus aureus A5177; test: In vitro agar dilution MIC, organism code BB; details: in µg/mL (unit assumed)
Procedure: as §1, §2, §3

[13] = test system: Staphylococcus aureus NCTC10649M; test: In vitro agar dilution MIC, organism code EE; details: Table 1B, unit assumed
Procedure: as §1, §2, §3

Candida albicans CCH 442 = test: In vitro agar dilution MIC, organism code TT; details: Table 1B, unit assumed
Procedure: as §1, §2, §3

[14] = test system: Streptococcus pyogenes EES61; test: In vitro agar dilution MIC, organism code LL; details: unit assumed
Procedure: as §1, §2, §3

[15] = test system: Staphylococcus epidermidis 3519; test: In vitro agar dilution MIC, organism code HH; details: Table 1B, in µg/mL (unit assumed)
Procedure: as §1, §2, §3

Escherichia coli DC-2 = test: In vitro agar dilution MIC, organism code SS; details: Table 1B, unit assumed
Procedure: as §1, §2, §3

[16] = test system: Streptococcus pneumoniae 5649; test: In vitro agar dilution MIC, organism code ZZA; details: unit assumed
Procedure: as §1, §2, §3

[17] = test system: Staphylococcus aureus 1775; test: In vitro agar dilution MIC, organism code GG; details: Table 1B, unit assumed
Procedure: as §1, §2, §3

[18] = test system: Streptococcus pyogenes 930; test: In vitro agar dilution MIC, organism code MM; details: unit assumed
Procedure: as §1, §2, §3

[19] = test system: Mycobacterium smegmatis ATCC 114; test: In vitro agar dilution MIC, organism code UU; details: Table 1B, in µg/mL (unit assumed)
Procedure: as §1, §2, §3

[20] = test system: Staphylococcus aureus ATCC 6538P; test: In vitro agar dilution MIC, organism code AA; details: unit assumed
Procedure: as §1, §2, §3

[21] = test system: Streptococcus pneumoniae ATCC 6303; test: In vitro agar dilution MIC, organism code XX; details: unit assumed
Procedure: as §1, §2, §3

[22] = test system: Streptococcus pyogenes PIU 2548; test: In vitro agar dilution MIC, organism code NN; details: unit assumed
Procedure: as §1, §2, §3

[23] = test system: Streptococcus pneumoniae 5979; test: In vitro agar dilution MIC, organism code ZZ; details: Table 1B, unit assumed
Procedure: as §1, §2, §3

Row | Structure (SMILES) | MIC ([1]; Table 1B) [µg/mL] | MIC [2] [µg/mL] | MIC (Escherichia coli SS) | MIC [3] | MIC [4] [µg/mL] | MIC [5] | MIC [6] [µg/mL] | MIC (Escherichia coli JUHL) | MIC [7] [µg/mL] | MIC [8] [µg/mL] | MIC [9] [µg/mL] | MIC ([10]; Table 1B) [µg/mL] | MIC [11] [µg/mL] | MIC ([12]; Table 1B) | MIC [13] [µg/mL] | MIC (Candida albicans CCH 442) [µg/mL] | MIC ([14]; Table 1B) [µg/mL] | MIC [15] | MIC (Escherichia coli DC-2) [µg/mL] | MIC ([16]; Table 1B) [µg/mL] | other results
1 | CC[C@H]1OC(=O)[C@H](C)[C@@H](O[C@H]2C[C@@](C)(OC)[C@@H](O)[C@H](C)O2)[C@H](C)[C@@H](O[C@@H]2O[C@H](C)C[C@H](N(C)C)[C@H]2O)[C@](C)(O)C[C@@H](C)C(=O)[C@H](C)[C@@H](O)[C@]1(C)O [Ery. A, Erythromycin A, reference compound] | 4 (≈ 5.45 µM) | 0.02 (≈ 0.0273 µM) | 0.78 and 0.39 | 0.2 and 0.39 | 0.39 (≈ 0.531 µM) | 0.1 and 0.05 | 0.05 (≈ 0.0681 µM) | > 100 and 50 | 0.02 (≈ 0.0273 µM) | 0.39 (≈ 0.531 µM) | 0.06 (≈ 0.0818 µM) | > 100 | 0.05 (≈ 0.0681 µM) | 3.1 and 6.2 | 0.39 (≈ 0.531 µM) | > 100 | 0.02 (≈ 0.0273 µM) | 0.39 and 0.2 | > 100 | 16 (≈ 21.8 µM) | MIC [17]: > 100 µg/mL; MIC ([18]; Table 1B): > 100 µg/mL; MIC [19]: 3.1 and 6.2; MIC ([20]; Table 1B): 0.2 µg/mL (≈ 0.273 µM); MIC ([21]; Table 1B): 0.06 µg/mL (≈ 0.0818 µM)
2 | CC[C@H]1OC(=O)C(C)(F)C(=O)[C@H](C)[C@@H](O[C@@H]2O[C@H](C)C[C@H](N(C)C)[C@H]2O)[C@](C)(OC)C[C@@H](C)C2=NCCN3C(=O)O[C@@]1(C)[C@H]3[C@H]2C (some centres unmarked) [Example 1] | 2 (≈ 3.05 µM) | 0.01 (≈ 0.0152 µM) | 0.2 | 0.2 | 0.1 (≈ 0.152 µM) | 0.05 | 0.02 (≈ 0.0305 µM) | > 50 | 0.02 (≈ 0.0305 µM) | 0.1 (≈ 0.152 µM) | 0.03 (≈ 0.0457 µM) | > 100 | 0.05 (≈ 0.0762 µM) | 0.1 | 0.2 (≈ 0.305 µM) | > 100 | 0.01 (≈ 0.0152 µM) | 0.2 | 25 (≈ 38.1 µM) | 0.5 (≈ 0.762 µM) | MIC ([1]; Table 1C): 2 µg/mL (≈ 3.05 µM); MIC ([22]; Table 1B): 0.2 µg/mL (≈ 0.305 µM); MIC ([22]; Table 1C): 0.5 µg/mL (≈ 0.762 µM); MIC ([10]; Table 1C): > 100 µg/mL; MIC ([12]; Table 1C): 0.1; MIC ([14]; Table 1C): 0.03 µg/mL (≈ 0.0457 µM); MIC ([16]; Table 1C): 0.5 µg/mL (≈ 0.762 µM); MIC [17]: > 100 µg/mL; MIC ([18]; Table 1B): > 100 µg/mL; MIC ([18]; Table 1C): > 128 µg/mL; MIC [19]: 0.2; MIC ([20]; Table 1B): 0.1 µg/mL (≈ 0.152 µM); MIC ([20]; Table 1C): 0.1 µg/mL (≈ 0.152 µM); MIC ([21]; Table 1B): 0.03 µg/mL (≈ 0.0457 µM); MIC ([21]; Table 1C): 0.03 µg/mL (≈ 0.0457 µM)
3 | CC[C@H]1OC(=O)[C@@](C)(F)C(=O)[C@H](C)[C@@H](O[C@@H]2O[C@H](C)C[C@H](N(C)C)[C@H]2O)[C@](C)(OC/C=C/c2cnc3ccc(CS(N)(=O)=O)cc3c2)C[C@@H](C)C(=O)[C@H](C)[C@H]2NC(=O)O[C@@]21C [Example 14] | 2 (≈ 2.28 µM) | ≤ 0.005 | 0.1 | 0.2 | 0.1 (≈ 0.114 µM) | 0.1 | 0.01 (≈ 0.0114 µM) | 50 | 0.01 (≈ 0.0114 µM) | 0.1 (≈ 0.114 µM) | ≤ 0.004 | > 100 | 0.1 (≈ 0.114 µM) | 0.1 | 0.1 (≈ 0.114 µM) | > 100 | 0.01 (≈ 0.0114 µM) | 0.1 | 100 (≈ 114 µM) | 0.25 (≈ 0.285 µM) | MIC ([22]; Table 1B): 0.2 µg/mL (≈ 0.228 µM); MIC [23]: 2 µg/mL (≈ 2.28 µM); MIC [17]: > 100 µg/mL; MIC [19]: 3.1; MIC ([20]; Table 1B): 0.05 µg/mL (≈ 0.057 µM); MIC ([21]; Table 1B): ≤ 0.004 µg/mL
